Activity data for 6 compounds are collected here from ChEMBL document CHEMBL1151974, “Sesquiterpenoids and phenylpropanoids from pericarps of Illicium oligandrum” (2009).

Assay [1] deals with SH-SY5Y. Put plainly: Neuroprotective activity against H2O2-induced human SH-SY5Y cell damage assessed as increase in cell viability at 1 uM pretreated 2 hrs before H2O2 challenge relative to control. It counts as functional.
Assay [2] concerns SH-SY5Y. Nature of the assay: Neuroprotective activity against H2O2-induced human SH-SY5Y cell damage assessed as increase in cell viability at 10 uM pretreated 2 hrs before H2O2 challenge relative to control. It counts as functional.

On to `C[C@]12COC(=O)C[C@@]3(CC(=O)[C@]1(C)O)[C@]2(O)CC[C@]3(C)O`, for which the Activity with SH-SY5Y [1] was found to be 2.76%. In the case of `C[C@@H]1[C@H](O)C[C@]23OC(=O)C[C@]12C[C@]1(O)OC[C@]3(C)[C@@H]1C` [PSEUDOMAJUCIN], the Activity in the assay with SH-SY5Y [2] is 2.83%. Same read-out and setting: under `COc1ccc([C@@H](O)[C@H](C)O)cc1` (relative stereo) [ERYTHRO ANETHOLE GLYCOL] stands 7.29%; under `COc1ccc([C@@H]2O[C@@H]3[C@@H](O[C@H]2C)O[C@H](CO)[C@@H](O)[C@@H]3O)cc1` [OLIGANDRUMIN E], 6.42%.

On to `C[C@@]12COC(=O)[C@]1(C)[C@@H](O)[C@]13CC(=O)O[C@@]1(C)CC[C@]23O` [ANISLACTONE B], for which the Activity in the assay on SH-SY5Y [1] is on record as 12.55%. With VITAMIN E, the Activity with SH-SY5Y [2] came to 7.16%.
